Our source for the IC50 and Ki values is patent publication US20180265515A1 (Genentech, Inc., priority 2015, published 2018).

Assay [1] relates to JAK1-dependent STAT6 phosphorylation downstream of IL-13 stimulation in BEAS-2B human bronchial epithelial cells. The assay can be described thus: JAK1 pathway assay in BEAS-2B cells (IL-13 stimulated STAT6 phosphorylation, MSD). Format: cell-based. As to conditions: read-out: P-STAT6 BEAS2B + IL13 IC50. The essentials: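 BEAS-2B human bronchial epithelial cells, plated the day before in complete growth medium, were preincubated with compound for 1 hr at 37° C (0.2% DMSO final), then stimulated with IL-13 at its EC90 for 15 min. STAT6 phosphorylation in lysates was read by MSD; EC50 was taken as 50% inhibition versus DMSO control.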

The target of assay [2] is T1, isolated recombinant JAK2 kinase domain (Homo sapiens, UniProt O60674).
T1 construct: The activity of the isolated recombinant JAK1 and JAK2 kinase domain was measured
T1 sequence (O60674 849-1124 limits assumed): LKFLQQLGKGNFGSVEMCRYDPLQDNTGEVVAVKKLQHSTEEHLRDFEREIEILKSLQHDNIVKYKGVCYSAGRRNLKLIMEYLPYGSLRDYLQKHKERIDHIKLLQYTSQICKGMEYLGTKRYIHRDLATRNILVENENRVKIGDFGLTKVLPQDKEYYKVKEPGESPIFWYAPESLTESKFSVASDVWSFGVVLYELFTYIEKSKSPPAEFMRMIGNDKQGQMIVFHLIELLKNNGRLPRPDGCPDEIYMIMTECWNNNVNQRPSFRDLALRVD
The experiment in a line: JAK2 enzyme assay (Caliper LabChip, Ki). As to conditions: 25 μM ATP. The format is biochemical. The essentials:
(§1)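 Ki values fitted with Morrison tight-binding equation adjusted for ATP-competitive inhibition, using product-to-total peptide ratio read by Caliper LabChip. Reactions: isolated JAK1 or JAK2 kinase domain with N-terminal 5-carboxyfluorescein JAK3-derived peptide, 22° C for 30 min, quenched by EDTA.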

Assay [3] has as its target T2, isolated recombinant JAK1 kinase domain (Homo sapiens, UniProt P23458).
T2 construct: The activity of the isolated recombinant JAK1 and JAK2 kinase domain was measured
The experiment in a line: JAK1 enzyme assay (Caliper LabChip, Ki). The format is biochemical. The conditions noted are these: recombinant JAK1 kinase domain, 25 μM ATP. Put shortly:
as §1

T2 sequence (P23458 875-1153 limits assumed): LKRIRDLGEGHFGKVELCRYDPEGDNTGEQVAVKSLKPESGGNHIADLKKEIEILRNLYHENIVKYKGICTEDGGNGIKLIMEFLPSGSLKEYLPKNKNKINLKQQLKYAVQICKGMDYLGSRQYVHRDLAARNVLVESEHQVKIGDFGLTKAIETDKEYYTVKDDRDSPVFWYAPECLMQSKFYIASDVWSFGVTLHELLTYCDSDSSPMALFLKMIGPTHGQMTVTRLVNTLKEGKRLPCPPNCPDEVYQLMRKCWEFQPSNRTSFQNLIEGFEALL

On to `CSc1ccc(OC(F)F)c(-c2nn(CC(=O)N3CCN(CC4CCOCC4)CC3)cc2NC(=O)c2cnn3cccnc23)c1` [Example 65, N-[3-[2-(difluoromethoxy)-5-methylsulfanyl-phenyl]-1-[2-oxo-2-[4-(tetrahydropyran-4-ylmethyl)piperazin-1-yl]ethyl]pyrazol-4-yl]pyrazolo[1,5-a]pyrimidine-3-carboxamide], for which the IC50 (in general, the concentration that gives 50% inhibition) in assay [1] turned out to be 15000 pM. For the same molecule, the results for the inhibitory constant (Ki) in assay [2] and in assay [3] were 490 pM and 410 pM, respectively.
Take `CSc1ccc(OC(F)F)c(-c2nn(CC(=O)N3CCN(C4CCSCC4)CC3)cc2NC(=O)c2cnn3cccnc23)c1` [Example 66, N-[3-[2-(difluoromethoxy)-5-methylsulfanyl-phenyl]-1-[2-oxo-2-(4-tetrahydrothiopyran-4-ylpiperazin-1-yl)ethyl]pyrazol-4-yl]pyrazolo[1,5-a]pyrimidine-3-carboxamide]: in assay [1], the IC50 amounted to 5000 pM. For the same molecule, the Ki (as a rule, the dissociation constant of the complex between target and ligand, obtained from inhibition or displacement) in assay [2] worked out at 240 pM; in assay [3] it was 200 pM.
On the same counts, the results for `CSc1ccc(OC(F)F)c(-c2nn(CC(=O)N3CC=CCC3)cc2NC(=O)c2cnn3cccnc23)c1` [Example 67, N-[3-[2-(difluoromethoxy)-5-methylsulfanyl-phenyl]-1-[2-(3,6-dihydro-2H-pyridin-1-yl)-2-oxo-ethyl]pyrazol-4-yl]pyrazolo[1,5-a]pyrimidine-3-carboxamide] are 8900 pM, 270 pM and 190 pM.
As for `CSc1ccc(OC(F)F)c(-c2nn(CC(=O)N3CCC(N(C)CCC(=O)N4CCC4)CC3)cc2NC(=O)c2cnn3cccnc23)c1` [Example 68, N-[1-[2-[4-[[3-(azetidin-1-yl)-3-oxo-propyl]-methyl-amino]-1-piperidyl]-2-oxo-ethyl]-3-[2-(difluoromethoxy)-5-methylsulfanyl-phenyl]pyrazol-4-yl]pyrazolo[1,5-a]pyrimidine-3-carboxamide], the IC50 in assay [1] was 300000 pM. In addition, the Ki in assay [2] worked out at 850 pM; in assay [3] it was 470 pM.
On the same counts, the results for `CSc1ccc(OC(F)F)c(-c2nn(CC(=O)N3CCC(N4CCN(C5COC5)CC4)CC3)cc2NC(=O)c2cnn3cccnc23)c1` [Example 69, N-[3-[2-(difluoromethoxy)-5-methylsulfanyl-phenyl]-1-[2-[4-[4-(oxetan-3-yl)piperazin-1-yl]-1-piperidyl]-2-oxo-ethyl]pyrazol-4-yl]pyrazolo[1,5-a]pyrimidine-3-carboxamide] are 50000 pM, 710 pM and 350 pM.
`CSc1ccc(OC(F)F)c(-c2nn(CC(=O)N3CCC(N4CCN(C5CCOCC5)CC4)CC3)cc2NC(=O)c2cnn3cccnc23)c1` [Example 70, N-[3-[2-(difluoromethoxy)-5-methylsulfanyl-phenyl]-1-[2-oxo-2-[4-(4-tetrahydropyran-4-ylpiperazin-1-yl)-1-piperidyl]ethyl]pyrazol-4-yl]pyrazolo[1,5-a]pyrimidine-3-carboxamide]: the concentration for half-maximal inhibition (IC50) in assay [1] amounted to 38000 pM. The Ki was found to be 820 pM in assay [2] and 420 pM in assay [3].
On the same counts, the results for `CSc1ccc(OC(F)F)c(-c2nn(CC(=O)N3CCC(OCC(=O)N4CCN(C)CC4)CC3)cc2NC(=O)c2cnn3cccnc23)c1` [Example 71, N-(3-(2-(difluoromethoxy)-5-(methylthio)phenyl)-1-(2-(4-(2-(4-methylpiperazin-1-yl)-2-oxoethoxy)piperidin-1-yl)-2-oxoethyl)-1H-pyrazol-4-yl)pyrazolo[1,5-a]pyrimidine-3-carboxamide] are 83000 pM, 1100 pM and 590 pM.
On the same counts, the results for `CSc1ccc(OC(F)F)c(-c2nn(CC(=O)N3CCC(N4CCn5cncc5C4)CC3)cc2NC(=O)c2cnn3cccnc23)c1` [Example 72, N-[3-[2-(difluoromethoxy)-5-methylsulfanyl-phenyl]-1-[2-[4-(6,8-dihydro-5H-imidazo[1,5-a]pyrazin-7-yl)-1-piperidyl]-2-oxo-ethyl]pyrazol-4-yl]pyrazolo[1,5-a]pyrimidine-3-carboxamide] are 110000 pM, 360 pM and 400 pM.
On the same counts, the results for `CSc1ccc(OC(F)F)c(-c2nn(CC(=O)N3CCC(N4CCn5ccnc5C4)CC3)cc2NC(=O)c2cnn3cccnc23)c1` [Example 73, N-[3-[2-(difluoromethoxy)-5-methylsulfanyl-phenyl]-1-[2-[4-(6,8-dihydro-5H-imidazo[1,2-a]pyrazin-7-yl)-1-piperidyl]-2-oxo-ethyl]pyrazol-4-yl]pyrazolo[1,5-a]pyrimidine-3-carboxamide] are 39000 pM, 250 pM and 230 pM.
With `CSc1ccc(OC(F)F)c(-c2nn(CC(=O)N3CCC(CN4CCN(C(=O)CN(C)C)CC4)CC3)cc2NC(=O)c2cnn3cccnc23)c1` [Example 74, N-[3-[2-(difluoromethoxy)-5-methylsulfanyl-phenyl]-1-[2-[4-[[4-[2-(dimethylamino)acetyl]piperazin-1-yl]methyl]-1-piperidyl]-2-oxo-ethyl]pyrazol-4-yl]pyrazolo[1,5-a]pyrimidine-3-carboxamide], the IC50 in assay [1] worked out at 50000 pM. Besides, the Ki amounted to 580 pM in assay [2] and 300 pM in assay [3].
As for `CSc1ccc(OC(F)F)c(-c2nn(CC(=O)N3CCC(N4CC5CC(C4)O5)CC3)cc2NC(=O)c2cnn3cccnc23)c1` [Example 75, N-[3-[2-(difluoromethoxy)-5-methylsulfanyl-phenyl]-1-[2-[4-(6-oxa-3-azabicyclo[3.1.1]heptan-3-yl)-1-piperidyl]-2-oxo-ethyl]pyrazol-4-yl]pyrazolo[1,5-a]pyrimidine-3-carboxamide], the IC50 in assay [1] stood at 12000 pM. Also, the Ki in assay [2] was determined as 380 pM; in assay [3], 280 pM.
On the same counts, the results for `CSc1ccc(OC(F)F)c(-c2nn(C3(CC#N)CN(C)C3)cc2NC(=O)c2cnn3cccnc23)c1` [Example 76, N-(1-(3-(cyanomethyl)-1-methylazetidin-3-yl)-3-(2-(difluoromethoxy)-5-(methylthio)phenyl)-1H-pyrazol-4-yl)pyrazolo[1,5-a]pyrimidine-3-carboxamide] are 60000 pM, 1000 pM and 1400 pM.
For `CSc1ccc(OC(F)F)c(-c2nn(C3(CC#N)CNC3)cc2NC(=O)c2cnn3cccnc23)c1` [Example 77, N-(1-(3-(cyanomethyl)azetidin-3-yl)-3-(2-(difluoromethoxy)-5-(methylthio)phenyl)-1H-pyrazol-4-yl)pyrazolo[1,5-a]pyrimidine-3-carboxamide] the same measures were 27000 pM, 330 pM and 470 pM.
On the same counts, the results for `CSc1ccc(OC(F)F)c(-c2nn(C3(CC#N)CN(C(=O)OC(C)(C)C)C3)cc2NC(=O)c2cnn3cccnc23)c1` [Example 78, tert-butyl 3-(cyanomethyl)-3-[3-[2-(difluoromethoxy)-5-methylsulfanyl-phenyl]-4-(pyrazolo[1,5-a]pyrimidine-3-carbonylamino)pyrazol-1-yl]azetidine-1-carboxylate] are 69000 pM, 720 pM and 920 pM.
Consider `CSc1ccc(OC(F)F)c(-c2nn(CC(=O)N3CCC(N4CCn5nccc5C4)CC3)cc2NC(=O)c2cnn3cccnc23)c1` [Example 79, N-[3-[2-(difluoromethoxy)-5-methylsulfanyl-phenyl]-1-[2-[4-(6,7-dihydro-4H-pyrazolo[1,5-a]pyrazin-5-yl)-1-piperidyl]-2-oxo-ethyl]pyrazol-4-yl]pyrazolo[1,5-a]pyrimidine-3-carboxamide], for which, in assay [1], the IC50 was found to be 35000 pM. In addition, the Ki in assay [2] worked out at 440 pM; in assay [3], 390 pM.
For `CSc1ccc(OC(F)F)c(-c2nn(CC(=O)N3CCC(CN4CCN(C(C)=O)CC4)CC3)cc2NC(=O)c2cnn3cccnc23)c1` [Example 80, N-[1-[2-[4-[(4-acetylpiperazin-1-yl)methyl]-1-piperidyl]-2-oxo-ethy]-3-[2-(difluoromethoxy)-5-methylsulfanyl-phenyl]pyrazol-4-yl]pyrazolo[1,5-a]pyrimidine-3-carboxamide] the same measures were 16000 pM, 430 pM and 260 pM.
Regarding `CSc1ccc(OC(F)F)c(-c2nn(Cc3cn(C4CCN(C5CCOCC5)CC4)nn3)cc2NC(=O)c2cnn3cccnc23)c1` [Example 81, N-(3-(2-(difluoromethoxy)-5-(methylthio)phenyl)-1-((1-(1-(tetrahydro-2H-pyran-4-yl)piperidin-4-yl)-1H-1,2,3-triazol-4-yl)methyl)-1H-pyrazol-4-yl)pyrazolo[1,5-a]pyrimidine-3-carboxamide], in assay [1], the IC50 was determined as 8100 pM. The Ki is 230 pM in assay [2] and 350 pM in assay [3].
For `COCC(=O)N1CCN(CC2CCN(C(=O)Cn3cc(NC(=O)c4cnn5cccnc45)c(-c4cc(SC)ccc4OC(F)F)n3)CC2)CC1` [Example 82, N-[3-[2-(difluoromethoxy)-5-methylsulfanyl-phenyl]-1-[2-[4-[[4-(2-methoxyacetyl)piperazin-1-yl]methyl]-1-piperidyl]-2-oxo-ethyl]pyrazol-4-yl]pyrazolo[1,5-a]pyrimidine-3-carboxamide] the same measures were 34000 pM, 410 pM and 290 pM.
